Here are results for two molecules from patent EP4748841A1, “BICYCLO[5,6] IMIDAZOLE PYRIMIDONE DERIVATIVE AND PREPARATION METHOD THEREFOR AND USE THEREOF” (Shujing Biopharma Co., Ltd, priority 2023, dated 2025).

A short description of data set [1]: Liver microsome stability experiment (SD rat). The class given is in vitro ADME. The note with it: for CLint scaled at 1 µM: SD, rat, liver microsomes, pH 7.4, SD rat liver microsomes; for half-life at 1 µM: pH 7.4, SD rat liver microsomes. On the procedure:
(§1) This experiment aimed to evaluate the phase I metabolic stability of the compounds of the present disclosure in liver microsomes of SD rats, beagle dogs, cynomolgus monkeys, and humans.
(§2) • (1) Buffer preparation: 73.21 g of dipotassium hydrogen phosphate trihydrate and 10.78 g of potassium dihydrogen phosphate were dissolved in 4000 mL of ultrapure water. The pH of the solution was adjusted to within 7.40 ± 0.10 using 10% phosphoric acid or 1 M potassium hydroxide, resulting in a final concentration of 100 mM. • (2) Solution preparation and dilution: Stock solutions of the test compounds at a concentration of 10 mM were prepared in dimethyl sulfoxide (DMSO) and stored at 4 °C, and they were diluted into 100 µM working solutions with pure acetonitrile when used. A stock solution of the control compound testosterone at a concentration of 10 mM was prepared in DMSO and stored at -20 °C, and it was diluted into a 400 µM working solution with pure acetonitrile when used. • (3) Termination solution preparation: The termination solution was an acetonitrile solution containing an internal standard (terfenadine). The prepared termination solution was stored in a refrigerator at 2-8 °C. • (4) Liver microsome solution preparation: Liver microsomes from various species (SD rat, beagle dog, cynomolgus monkey, and human) were diluted into 20× working solutions using 100 mM potassium phosphate buffer. The final concentration of the liver microsomes in the reaction system was 0.5 mg/mL. • (5) Reduced nicotinamide adenine dinucleotide phosphate (NADPH) regeneration system preparation: Appropriate amounts of nicotinamide adenine dinucleotide phosphate (NADP), glucose-6-phosphate (G6P), magnesium chloride (MgCl2), and glucose-6-phosphate dehydrogenase (G6PDH) were weighed to prepare stock solutions at concentrations of 65.33 mM, 330 mM, 300 mM, and 250 Units/mL, respectively. The four stock solutions described above were each added to an appropriate amount of buffer, and the mixture was mixed well by gently inverting up and down. The final concentrations of NADP, G6P, MgCl2, and G6PDH in the NADPH regeneration system were 2.65 mM, 10.2 mM, 6.12 mM, and 2.45 Units/mL, respectively. • (6) Incubation process: The incubation was completed in 96-well plates. Several incubation plates were prepared and named T0, T5, T10, T20, T40, T60, and NCF60, respectively. The first 6 plates corresponded to reaction time points of 0 min, 5 min, 10 min, 20 min, 40 min, and 60 min, respectively. The NCF60 plate was incubated for 60 min with potassium phosphate buffer replacing the NADPH regeneration system solution. Samples under all conditions were prepared in triplicate.
(§3) 2 µL of the test compound or control compound and 100 µL of microsome working solution (containing 1 mg/mL liver microsome protein) were added to each of the T0, T5, T10, T20, T40, T60, and NCF60 plates, and only the microsome working solution was added to the Blank 60 plate. The plates described above were then pre-incubated in a 37 °C water bath for about 10 min.
(§4) After the pre-incubation was completed, 98 µL of the NADPH regeneration system working solution was added to each sample well except for the NCF60 plate and the T0 plate to initiate the reaction, and 98 µL of potassium phosphate buffer was added to each well of the NCF60 plate. Therefore, for the sample wells containing the test sample or control substance working solution, the final concentrations of TC and testosterone in the reaction were 1 µM and 4 µM, respectively, the concentration of liver microsomes was 0.5 mg/mL, and the final concentrations of DMSO and acetonitrile in the reaction system were 0.01% (v/v) and 0.99% (v/v), respectively.
(§5) After incubation for an appropriate time (e.g., 5 min, 10 min, 20 min, 40 min, and 60 min), 600 µL of a termination solution (an acetonitrile solution containing 100 ng/mL […]) was added to each test compound sample well and control compound sample well to terminate the reaction. […]
On the technique in general: Liver microsomes are a subcellular fraction often used to study metabolism.

Data set [2] in a line: Liver microsome stability experiment (cynomolgus monkey). Format: in vitro ADME. The note with it: pH 7.4, Cynomolgus monkey liver microsomes, 0.5 mg/mL; for CLint scaled at 1 µM: cynomolgus monkey, liver microsomes. On the procedure: as §1, §2, §3, §4, §5
The mark [3] stands for this setting: 0.5 mg/mL, 1 µM, read-out: CL(liver).
Setting [4] is: 0.5 mg/mL, 1 µM, read-out: CLint(liver).
Setting [5] is: read-out: Clearance rate classification.

As to `O=c1nc(OCc2cc(F)c(Oc3ccnc(C(F)(F)F)c3)c(F)c2)cc2n1C[C@H]1CCCN21` [Comparative Example 1, reference compound], the CLint scaled at 1 µM was 18.9 mL/min/kg in data set [1] (setting [3]); 28.7 mL/min/kg in data set [1] (setting [4]); 23.7 to 129 mL/min/kg in data set [1] (setting [5]); 28.3 mL/min/kg in data set [2] (read-out: CL(liver)); 81 mL/min/kg in data set [2] (read-out: CLint(liver)). Also, the half-life (usually the time in which the quantity being followed falls by half) at 1 µM in data set [1] (0.5 mg/mL, 1 µM) was 1.45 h; in data set [2], 0.385 h.
With `O=c1nc(OCc2cc(F)c(Oc3ccnc(C(F)(F)F)c3)c(F)c2)cc2n1C[C@H]1CCN21` [Example 34-R], the CLint scaled at 1 µM is below 10.8 mL/min/kg in data set [1] (setting [3]); below 13.4 mL/min/kg in data set [1] (setting [4]); at most 23.7 mL/min/kg in data set [1] (setting [5]); below 8.2 mL/min/kg in data set [2] (read-out: CL(liver)); below 10 mL/min/kg in data set [2] (read-out: CLint(liver)). Moreover, the half-life at 1 µM is above 3.11 h in data set [1] (0.5 mg/mL, 1 µM) and above 3.11 h in data set [2].
